In US6355799B1, “Substituted benzene compounds, process for their preparation, and herbicidal and defoliant compositions containing them” (ISK Americas Incorporated, priority 1997, dated 2002):

How the values were obtained:
Type in all cases: in vivo
[1] = tested on: redroot pigweed (Amaranthus retroflexus, AMARE); experiment: Pre-emerge test, greenhouse herbicide activity screening; conditions: pre-emerge, rated 14 days after application, 0 = no damage, 100 = complete death
Procedure, shortened: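 Herbicidal damage is scored 0 (none) to 100 (complete plant death) two weeks after a simulated field spray. Rates span 15–1000 g ai/ha, delivered in acetone at 187 l/ha. For post-emergence treatments, plants have 2–3 leaves and the spray carries 0.25% v/v non-ionic surfactant.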

[2] = tested on: barnyardgrass (Echinochloa crus-galli, ECHCG); experiment: as above; conditions: pre-emerge, rated 14 days after application, 0 = no damage, 100 = complete death
Procedure, shortened: (§1)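 Rating: 0–100 visual injury, 14 DAA. Application: acetone, 187 l/ha, 15–1000 g ai/ha, flat-fan track sprayer with nozzle 40–45 cm above soil or canopy. Post-emerge runs used 0.25% v/v surfactant on 2–3 leaf plants.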

[3] = tested on: green foxtail (Setaria viridis, SETVI); experiment: as above; conditions: pre-emerge, rated 14 days after application, 0 = no damage, 100 = complete death
Procedure, shortened: as §1

[4] = tested on: ivyleaf morningglory (Ipomoea hederacea, IPOHE); experiment: as above; conditions: pre-emerge, rated 14 days after application, 0 = no damage, 100 = complete death
Procedure, shortened: as §1

[5] = tested on: johnsongrass (Sorghum halepense, SORHA); experiment: as above; conditions: pre-emerge, rated 14 days after application, 0 = no damage, 100 = complete death
Procedure, shortened: as §1

[6] = tested on: lambsquarters (Chenopodium album, CHEAL); experiment: as above; conditions: pre-emerge, rated 14 days after application, 0 = no damage, 100 = complete death
Procedure, shortened: as §1

[7] = tested on: large crabgrass (Digitaria sanguinalis, DIGSA); experiment: as above; conditions: pre-emerge, rated 14 days after application, 0 = no damage, 100 = complete death
Procedure, shortened: as §1

[8] = tested on: sicklepod (Cassia obtusifolia, CASOB); experiment: as above; conditions: pre-emerge, rated 14 days after application, 0 = no damage, 100 = complete death
Procedure, shortened: as §1

[9] = tested on: velvetleaf (Abutilon theophrasti, ABUTH); experiment: as above; conditions: pre-emerge, rated 14 days after application, 0 = no damage, 100 = complete death
Procedure, shortened: as §1

[10] = tested on: field corn (Zea mays L., var. Dekalb 535, CORN); experiment: Pre-emerge test, crop safety; conditions: pre-emerge, rated 14 days after application, 0 = no damage, 100 = complete death
Procedure, shortened: (§2)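 Visual ratings on a 0-100 scale (0 no damage, 100 all plants dead) were taken at 14 days after treatment. Rates of 15-1000 g ai/ha in acetone, 187 l/ha, were sprayed onto soil one day after planting (pre-emerge) or onto 2-3 leaf plants with 0.25% v/v surfactant (post-emerge).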

[11] = tested on: upland rice (Oryza sp., var. Tebonnet, RICE); experiment: Pre-emerge test, crop safety; conditions: pre-emerge, rated 14 days after application, 0 = no damage, 100 = complete death
Procedure, shortened: as §2

[12] = tested on: barnyardgrass (Echinochloa crus-galli, ECHCG); experiment: Post-emerge test, greenhouse herbicide activity screening; conditions: phytotoxicity rating 0-100 (0 no damage, 100 complete death), 14 days after application
Procedure, shortened: (§3)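 Compounds in acetone were track-sprayed at 187 l/ha, 15–1000 g ai/ha, onto sandy loam pots. Pre-emerge seeds were sown one day before spraying, with surface watering afterwards. Post-emerge plants were at the 2–3 leaf stage and sprayed with 0.25% v/v non-ionic surfactant. Injury was rated 0–100 at 14 days.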

[13] = tested on: green foxtail (Setaria viridis, SETVI); experiment: as above; conditions: phytotoxicity rating 0-100 (0 no damage, 100 complete death), 14 days after application
Procedure, shortened: as §3

[14] = tested on: ivyleaf morningglory (Ipomoea hederacea, IPOHE); experiment: as above; conditions: phytotoxicity rating 0-100 (0 no damage, 100 complete death), 14 days after application
Procedure, shortened: as §3

[15] = tested on: johnsongrass (Sorghum halepense, SORHA); experiment: as above; conditions: phytotoxicity rating 0-100 (0 no damage, 100 complete death), 14 days after application
Procedure, shortened: as §3

[16] = tested on: lambsquarters (Chenopodium album, CHEAL); experiment: as above; conditions: phytotoxicity rating 0-100 (0 no damage, 100 complete death), 14 days after application
Procedure, shortened: as §3

[17] = tested on: large crabgrass (Digitaria sanguinalis, DIGSA); experiment: as above; conditions: phytotoxicity rating 0-100 (0 no damage, 100 complete death), 14 days after application
Procedure, shortened: as §3

[18] = tested on: redroot pigweed (Amaranthus retroflexus, AMARE); experiment: as above; conditions: phytotoxicity rating 0-100 (0 no damage, 100 complete death), 14 days after application
Procedure, shortened: as §3

[19] = tested on: sicklepod (Cassia obtusifolia, CASOB); experiment: as above; conditions: phytotoxicity rating 0-100 (0 no damage, 100 complete death), 14 days after application
Procedure, shortened: as §3

[20] = tested on: velvetleaf (Abutilon theophrasti, ABUTH); experiment: as above; conditions: phytotoxicity rating 0-100 (0 no damage, 100 complete death), 14 days after application
Procedure, shortened: as §3

[21] = tested on: field corn (Zea mays L., var. Dekalb 535, CORN); experiment: Post-emerge test, crop safety; conditions: phytotoxicity rating 0-100 (0 no damage, 100 complete death), 14 days after application
Procedure, shortened: (§4)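 Plants grown in 10 cm pots of sandy loam mix received acetone-dissolved compounds through a moving flat-fan nozzle. Doses ranged from 15 to 1000 g ai/ha. Pre-emerge pots were seeded one day earlier, post-emerge pots 8–21 days earlier. Fourteen days on, each pot was graded 0–100 for damage.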

[22] = tested on: upland rice (Oryza sp., var. Tebonnet, RICE); experiment: Post-emerge test, crop safety; conditions: phytotoxicity rating 0-100 (0 no damage, 100 complete death), 14 days after application
Procedure, shortened: as §4

COC(=O)C=CCOc1c(Cl)cc(F)c(-n2c(=O)cc(C(F)(F)F)n(C)c2=O)c1N [Compound 1-20]
Pre-emerge Herbicidal Activity AMARE (phytotoxicity rating, scale 0-100) ([1]; 63 g ai/ha): 100
Pre-emerge Herbicidal Activity AMARE (phytotoxicity rating, scale 0-100) ([1]; 250 g ai/ha): 100
Pre-emerge Herbicidal Activity ECHCG (phytotoxicity rating, scale 0-100) ([2]; 63 g ai/ha): 50
Pre-emerge Herbicidal Activity ECHCG (phytotoxicity rating, scale 0-100) ([2]; 250 g ai/ha): 100
Pre-emerge Herbicidal Activity SETVI (phytotoxicity rating, scale 0-100) ([3]; 63 g ai/ha): 80
Pre-emerge Herbicidal Activity SETVI (phytotoxicity rating, scale 0-100) ([3]; 250 g ai/ha): 100
Pre-emerge Herbicidal Activity IPOHE (phytotoxicity rating, scale 0-100) ([4]; 63 g ai/ha): 40
Pre-emerge Herbicidal Activity IPOHE (phytotoxicity rating, scale 0-100) ([4]; 250 g ai/ha): 100
Pre-emerge Herbicidal Activity SORHA (phytotoxicity rating, scale 0-100) ([5]; 63 g ai/ha): 30
Pre-emerge Herbicidal Activity SORHA (phytotoxicity rating, scale 0-100) ([5]; 250 g ai/ha): 70
Pre-emerge Herbicidal Activity CHEAL (phytotoxicity rating, scale 0-100) ([6]; 63 g ai/ha): 100
Pre-emerge Herbicidal Activity CHEAL (phytotoxicity rating, scale 0-100) ([6]; 250 g ai/ha): 100
Pre-emerge Herbicidal Activity DIGSA (phytotoxicity rating, scale 0-100) ([7]; 63 g ai/ha): 50
Pre-emerge Herbicidal Activity DIGSA (phytotoxicity rating, scale 0-100) ([7]; 250 g ai/ha): 90
Pre-emerge Herbicidal Activity CASOB (phytotoxicity rating, scale 0-100) ([8]; 63 g ai/ha): 100
Pre-emerge Herbicidal Activity CASOB (phytotoxicity rating, scale 0-100) ([8]; 250 g ai/ha): 100
Pre-emerge Herbicidal Activity ABUTH (phytotoxicity rating, scale 0-100) ([9]; 63 g ai/ha): 100
Pre-emerge Herbicidal Activity ABUTH (phytotoxicity rating, scale 0-100) ([9]; 250 g ai/ha): 100
Pre-emerge crop damage CORN (phytotoxicity rating, scale 0-100) ([10]; 63 g ai/ha): 15
Pre-emerge crop damage CORN (phytotoxicity rating, scale 0-100) ([10]; 250 g ai/ha): 65
Pre-emerge crop damage RICE (phytotoxicity rating, scale 0-100) ([11]; 63 g ai/ha): 60
Pre-emerge crop damage RICE (phytotoxicity rating, scale 0-100) ([11]; 250 g ai/ha): 70
Post-emerge Herbicidal Activity ECHCG ([12]; 63 g ai/ha): 30
Post-emerge Herbicidal Activity ECHCG ([12]; 250 g ai/ha): 80
Post-emerge Herbicidal Activity SETVI ([13]; 63 g ai/ha): 0
Post-emerge Herbicidal Activity SETVI ([13]; 250 g ai/ha): 60
Post-emerge Herbicidal Activity IPOHE ([14]; 63 g ai/ha): 100
Post-emerge Herbicidal Activity IPOHE ([14]; 250 g ai/ha): 100
Post-emerge Herbicidal Activity SORHA ([15]; 63 g ai/ha): 10
Post-emerge Herbicidal Activity SORHA ([15]; 250 g ai/ha): 70
Post-emerge Herbicidal Activity CHEAL ([16]; 63 g ai/ha): 90
Post-emerge Herbicidal Activity CHEAL ([16]; 250 g ai/ha): 100
Post-emerge Herbicidal Activity DIGSA ([17]; 63 g ai/ha): 10
Post-emerge Herbicidal Activity DIGSA ([17]; 250 g ai/ha): 20
Post-emerge Herbicidal Activity AMARE ([18]; 63 g ai/ha): 90
Post-emerge Herbicidal Activity AMARE ([18]; 250 g ai/ha): 100
Post-emerge Herbicidal Activity CASOB ([19]; 63 g ai/ha): 0
Post-emerge Herbicidal Activity CASOB ([19]; 250 g ai/ha): 50
Post-emerge Herbicidal Activity ABUTH ([20]; 63 g ai/ha): 100
Post-emerge Herbicidal Activity ABUTH ([20]; 250 g ai/ha): 100
Post-emerge Herbicidal Activity CORN (crop damage) ([21]; 63 g ai/ha): 10
Post-emerge Herbicidal Activity CORN (crop damage) ([21]; 250 g ai/ha): 40
Post-emerge Herbicidal Activity RICE (crop damage) ([22]; 63 g ai/ha): 20
Post-emerge Herbicidal Activity RICE (crop damage) ([22]; 250 g ai/ha): 50
